pIC50: −log10 of the molar value.
target: T1, Recombinant human cathepsin S (CatS) (Homo sapiens, UniProt P25774); experiment: Recombinant human cathepsin S (CatS) fluorogenic substrate inhibition assay; type: biochemical; details: not given
T1 construct: made in house
Description: Recombinant human cathepsin S (CatS) was expressed in the baculovirus system and purified in one step with a thiopropyl-sepharose column. […] The assay is run in 150 mM sodium acetate pH 5.0 containing 1.5 mM DTT and 150 mM NaCl. […] Measurements are taken every min for 20 min. The rate is calculated from the slope of the increase in fluorescence and the percent inhibition is calculated from this.

T1 sequence (P25774 115-331): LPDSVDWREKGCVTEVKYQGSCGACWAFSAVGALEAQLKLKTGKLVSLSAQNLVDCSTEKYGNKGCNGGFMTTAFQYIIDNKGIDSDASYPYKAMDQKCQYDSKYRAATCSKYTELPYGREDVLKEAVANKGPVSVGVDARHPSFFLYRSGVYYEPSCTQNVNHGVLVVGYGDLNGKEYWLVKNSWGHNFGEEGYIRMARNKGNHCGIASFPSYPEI

How did the pIC50 turn out when `CS(=O)(=O)N1CCc2c(c(-c3ccc(C(F)(F)F)c(CNC(=O)c4ccc(F)cc4)c3)nn2CC(O)CN2CCC(C(N)=O)CC2)C1` (centres unmarked) [Example 18, 1-[3-(3-[3-[(4-Fluoro-benzoylamino)-methyl]-4-trifluoromethyl-phenyl]-5-methanesulfonyl-4,5,6,7-tetrahydro-pyrazolo[4,3-c]pyridin-1-yl)-2-hydroxy-propyl]-piperidine-4-carboxylic acid amide] was run?
Its pIC50 is 7.15.

same assay, conditions: average of results obtained; substrate Z-Valine-Valine-Arginine-AMC 10 μM, pH 5.0; read-out: CatS IC50

With `CC(=O)N(C)C1CCN(CC(O)Cn2nc(-c3ccc(C(F)(F)F)c(CNC(=O)CC(C)C)c3)c3c2CCN(S(C)(=O)=O)C3)C1` (centres unmarked) [Example 279, N-[5-(1-{3-[3-(Acetyl-methyl-amino)-pyrrolidin-1-yl]-2-hydroxy-propyl}-5-methanesulfonyl-4,5,6,7-tetrahydro-1H-pyrazolo[4,3-c]pyridin-3-yl)-2-trifluoromethyl-benzyl]-3-methyl-butyramide] as the compound, how does the pIC50 read?
The pIC50 was 6.62.

`CC(=O)N1CCN(CC(O)Cn2nc(-c3ccc(C(F)(F)F)c(CNC(=O)c4ccc(F)cc4)c3)c3c2CCN(S(C)(=O)=O)C3)CC1` (centres unmarked) [Example 21, N-(5-{1-[3-(4-Acetyl-piperazin-1-yl)-2-hydroxy-propyl]-5-methanesulfonyl-4,5,6,7-tetrahydro-1H-pyrazolo[4,3-c]pyridin-3-yl}-2-trifluoromethyl-benzyl)-4-fluoro-benzamide] was tested. Which pIC50 did it give?
Its pIC50 is 6.52.

`CS(=O)(=O)N1CCc2c(c(-c3ccc(C(F)(F)F)c(CNC(=O)c4ccc(F)cc4)c3)nn2CC(O)CN2CCC(O)C2)C1` (centres unmarked) [Example 27, 4-Fluoro-N-(5-{1-[2-hydroxy-3-(3-hydroxy-pyrrolidin-1-yl)-propyl]-5-methanesulfonyl-4,5,6,7-tetrahydro-1H-pyrazolo[4,3-c]pyridin-3-yl}-2-trifluoromethyl-benzyl)-benzamide] was tested. Which pIC50 did it give?
Its pIC50 is 6.64.

With `CS(=O)(=O)N1CCc2c(c(-c3ccc(Cl)c(CNC(=O)/C=C/c4ccccc4)c3)nn2CCCN2CCCC2)C1` [Example 219, N-{2-Chloro-5-[5-methanesulfonyl-1-(3-pyrrolidin-1-yl-propyl)-4,5,6,7-tetrahydro-1H-pyrazolo[4,3-c]pyridin-3-yl]-benzyl}-3-phenyl-acrylamide] as the compound, how does the pIC50 read?
The pIC50 was 6.19.

With `CC(C)=CC(=O)NCc1cc(-c2nn(CC(O)CN3CCC(N(C)C)C3)c3c2CN(S(C)(=O)=O)CC3)ccc1C(F)(F)F` (centres unmarked) [Example 33, 3-Methyl-but-2-enoic acid 5-{1-[3-(3-dimethylamino-pyrrolidin-1-yl)-2-hydroxy-propyl]-5-methanesulfonyl-4,5,6,7-tetrahydro-1H-pyrazolo[4,3-c]pyridin-3-yl}-2-trifluoromethyl-benzylamide] as the compound, how does the pIC50 read?
Its pIC50 is 6.34.

How did the pIC50 turn out when `CC(C)=CC(=O)NCc1cc(-c2nn(CC(O)CN3CCC(O)CC3)c3c2CN(S(C)(=O)=O)CC3)ccc1C(F)(F)F` (centres unmarked) [Example 154, 3-Methyl-but-2-enoic acid 5-{1-[2-hydroxy-3-(4-hydroxy-piperidin-1-yl)-propyl]-5-methanesulfonyl-4,5,6,7-tetrahydro-1H-pyrazolo[4,3-c]pyridin-3-yl}-2-trifluoromethyl-benzylamide] was run?
Its pIC50 is 7.05.

How did the pIC50 turn out when `CC1CCCN1CC(O)Cn1nc(-c2ccc(C(F)(F)F)c(CNC(=O)c3ccc(F)cc3)c2)c2c1CCN(S(C)(=O)=O)C2` (centres unmarked) [Example 100, 4-Fluoro-N-(5-{1-[2-hydroxy-3-(2-methyl-pyrrolidin-1-yl)-propyl]-5-methanesulfonyl-4,5,6,7-tetrahydro-1H-pyrazolo[4,3-c]pyridin-3-yl}-2-trifluoromethyl-benzyl)-benzamide] was run?
Its pIC50 is 6.48.

How did the pIC50 turn out when `CS(=O)(=O)N1CCc2c(c(-c3ccc(C(F)(F)F)c(CNC(=O)c4cc(Cl)cc(Cl)c4)c3)nn2CC(O)CN2CCCC2)C1` (centres unmarked) [Example 218, 3,5-Dichloro-N-{5-[1-(2-hydroxy-3-pyrrolidin-1-yl-propyl)-5-methanesulfonyl-4,5,6,7-tetrahydro-1H-pyrazolo[4,3-c]pyridin-3-yl]-2-trifluoromethyl-benzyl}-benzamide] was run?
Its pIC50 is 6.21.

`CS(=O)(=O)N1CCc2c(c(-c3ccc(Cl)c(CNC(=O)c4ccc(F)cc4)c3)nn2CC(O)CN2CCCC(C(N)=O)C2)C1` (centres unmarked) [Example 81, 1-[3-(3-{4-Chloro-3-[(4-fluoro-benzoylamino)-methyl]-phenyl}-5-methanesulfonyl-4,5,6,7-tetrahydro-pyrazolo[4,3-c]pyridin-1-yl)-2-hydroxy-propyl]-piperidine-3-carboxylic acid amide] was tested. Which pIC50 did it give?
The pIC50 was 6.77.

`CS(=O)(=O)N1CCc2c(c(-c3ccc(C(F)(F)F)c(CNC(=O)c4ccc(F)cc4)c3)nn2CC(O)CN2CC[C@@H](CO)C2)C1` (stereo partly drawn) [Example 95, (R)-4-Fluoro-N-(5-{1-[2-hydroxy-3-(3-hydroxymethyl-pyrrolidin-1-yl)-propyl]-5-methanesulfonyl-4,5,6,7-tetrahydro-1H-pyrazolo[4,3-c]pyridin-3-yl}-2-trifluoromethyl-benzyl)-benzamide] was tested. Which pIC50 did it give?
Its pIC50 is 6.64.

`CN(C)C1CCN(CCCn2nc(-c3ccc(C(F)(F)F)c(CNC(=O)c4ccc(F)cc4)c3)c3c2CCN(S(C)(=O)=O)C3)C1` (centres unmarked) [Example 5, N-(5-{1-[3-(3-Dimethylamino-pyrrolidin-1-yl)-propyl]-5-methanesulfonyl-4,5,6,7-tetrahydro-1H-pyrazolo[4,3-c]pyridin-3-yl}-2-trifluoromethyl-benzyl)-4-fluoro-benzamide] was tested. Which pIC50 did it give?
Its pIC50 is 6.82.

With `CS(=O)(=O)N1CCc2c(c(-c3ccc(C(F)(F)F)c(CNC(=O)c4ccc(F)cc4)c3)nn2CC(O)CN2CCCC2)C1` (centres unmarked) [Example 57, 4-Fluoro-N-{5-[1-(2-hydroxy-3-pyrrolidin-1-yl-propyl)-5-methanesulfonyl-4,5,6,7-tetrahydro-1H-pyrazolo[4,3-c]pyridin-3-yl]-2-trifluoromethyl-benzyl}-benzamide] as the compound, how does the pIC50 read?
Its pIC50 is 6.80.

How did the pIC50 turn out when `CS(=O)(=O)N1CCc2c(c(-c3ccc(Cl)c(CNC(=O)c4cc5ccccc5s4)c3)nn2CCCN2CCCC2)C1` [Example 164, Benzo[b]thiophene-2-carboxylic acid 2-chloro-5-[5-methanesulfonyl-1-(3-pyrrolidin-1-yl-propyl)-4,5,6,7-tetrahydro-1H-pyrazolo[4,3-c]pyridin-3-yl]-benzylamide] was run?
The pIC50 was 6.39.

How did the pIC50 turn out when `CS(=O)(=O)N1CCc2c(c(-c3ccc(Cl)c(CNC(=O)c4ccccc4)c3)nn2CC(O)CN2CCOCC2)C1` (centres unmarked) [Example 220, N-{2-Chloro-5-[1-(2-hydroxy-3-morpholin-4-yl-propyl)-5-methanesulfonyl-4,5,6,7-tetrahydro-1H-pyrazolo[4,3-c]pyridin-3-yl]-benzyl}-benzamide] was run?
Its pIC50 is 6.19.

With `CC(C)CC(=O)NCc1cc(-c2nn(CC(O)CN3CCC(N(C)C)CC3)c3c2CN(S(C)(=O)=O)CC3)ccc1C(F)(F)F` (centres unmarked) [Example 247, N-(5-{1-[3-(4-Dimethylamino-piperidin-1-yl)-2-hydroxy-propyl]-5-methanesulfonyl-4,5,6,7-tetrahydro-1H-pyrazolo[4,3-c]pyridin-3-yl}-2-trifluoromethyl-benzyl)-3-methyl-butyramide] as the compound, how does the pIC50 read?
The pIC50 was 6.38.

With `CC(C)CC(=O)NCc1cc(-c2nn(CC(O)CN3CCC(NS(C)(=O)=O)CC3)c3c2CN(S(C)(=O)=O)CC3)ccc1C(F)(F)F` (centres unmarked) [Example 255, N-(5-{1-[2-Hydroxy-3-(4-methanesulfonylamino-piperidin-1-yl)-propyl]-5-methanesulfonyl-4,5,6,7-tetrahydro-1H-pyrazolo[4,3-c]pyridin-3-yl}-2-trifluoromethyl-benzyl)-3-methyl-butyramide] as the compound, how does the pIC50 read?
Its pIC50 is 6.80.

How did the pIC50 turn out when `CS(=O)(=O)N1CCc2c(c(-c3ccc(C(F)(F)F)c(CNS(=O)(=O)c4ccc(F)cc4)c3)nn2CC(O)CN2CCCC2)C1` (centres unmarked) [Example 194, 4-Fluoro-N-{5-[1-(2-hydroxy-3-pyrrolidin-1-yl-propyl)-5-methanesulfonyl-4,5,6,7-tetrahydro-1H-pyrazolo[4,3-c]pyridin-3-yl]-2-trifluoromethyl-benzyl}-benzenesulfonamide] was run?
Its pIC50 is 5.31.

`CS(=O)(=O)N1CCc2c(c(-c3ccc(C(F)(F)F)c(CNC(=O)c4ccc(F)cc4)c3)nn2CCCN2CCC(O)C2)C1` (centres unmarked) [Example 40, 4-Fluoro-N-(5-{1-[3-(3-hydroxy-pyrrolidin-1-yl)-propyl]-5-methanesulfonyl-4,5,6,7-tetrahydro-1H-pyrazolo[4,3-c]pyridin-3-yl}-2-trifluoromethyl-benzyl)-benzamide] was tested. Which pIC50 did it give?
The pIC50 was 7.05.

`CS(=O)(=O)N1CCc2c(c(-c3ccc(Cl)c(CNC(=O)c4ccc(F)cc4)c3)nn2CC(O)CN2CCC(C(N)=O)CC2)C1` (centres unmarked) [Example 12, 1-[3-(3-{4-Chloro-3-[(4-fluoro-benzoylamino)-methyl]-phenyl}-5-methanesulfonyl-4,5,6,7-tetrahydro-pyrazolo[4,3-c]pyridin-1-yl)-2-hydroxy-propyl]-piperidine-4-carboxylic acid amide] was tested. Which pIC50 did it give?
The pIC50 was 7.15.

How did the pIC50 turn out when `CS(=O)(=O)N1CCc2c(c(-c3ccc(Cl)c(CNC(=O)c4ccccc4)c3)nn2CC(O)CN2CCCCCC2)C1` (centres unmarked) [Example 170, N-{5-[1-(3-Azepan-1-yl-2-hydroxy-propyl)-5-methanesulfonyl-4,5,6,7-tetrahydro-1H-pyrazolo[4,3-c]pyridin-3-yl]-2-chloro-benzyl}-benzamide] was run?
Its pIC50 is 6.25.

`CS(=O)(=O)N1CCc2c(c(-c3ccc(C(F)(F)F)c(CNC(=O)c4ccccc4O)c3)nn2CCCN2CCC3(CCNC3=O)CC2)C1` [Example 150, 2-Hydroxy-N-(5-{5-methanesulfonyl-1-[3-(1-oxo-2,8-diaza-spiro[4.5]dec-8-yl)-propyl]-4,5,6,7-tetrahydro-1H-pyrazolo[4,3-c]pyridin-3-yl}-2-trifluoromethyl-benzyl)-benzamide] was tested. Which pIC50 did it give?
The pIC50 was 6.62.

`CS(=O)(=O)N1CCc2c(c(-c3ccc(Cl)c(CNC(=O)c4ccccc4)c3)nn2CC(O)CN2CCCCC2)C1` (centres unmarked) [Example 231, N-{2-Chloro-5-[1-(2-hydroxy-3-piperidin-1-yl-propyl)-5-methanesulfonyl-4,5,6,7-tetrahydro-1H-pyrazolo[4,3-c]pyridin-3-yl]-benzyl}-benzamide] was tested. Which pIC50 did it give?
The pIC50 was 6.10.
